# Where two headings read alike, the source gives them in different places.
# Tested on: Stat3-ER expressing A375 cells
# Assay type: cell-based
# Experimental: In order to understand Stat3's ability to affect cell proliferation and cell death, we have examined the profile of genes expressed upon Stat3 activation in A375 cells using oligonucleotide microarrays.
# Briefly, microarray analysis was performed using HG U95A GeneChips™ (Affymetrix, Santa Clara, USA) essentially according to the manufacturer's instructions. […] RNA from three independent experiments was pooled and biotin-labeled cRNA probes were generated from each sample starting from 10 μg of total cellular RNA. The resulting biotinylated cRNAs were hybridized to the Affymetrix U95A oligonucleotide array containing more than 12,000 sequences and signals detected. Chip analysis was performed using the Affymetrix Microarray Suite v5 (target intensity 500 used for chip scaling) and GeneSpring 4.2.1 (Silicon Genetics). Changes in gene expression were assessed by looking for concordant changes between replicates using a signed Wilcoxon rank test (as recommended by Affymetrix).
structure (smiles),measurement,setting,value
"CCC(=C(c1ccc(O)cc1)c1ccc(OCCN(C)C)cc1)c1ccccc1 [4HT, 4-hydroxytamoxifen, reference compound]",expression change (fold): Absent in melanoma 2,Avge of clones,2.1
same,expression change (fold): Alpha-1-antichymotrypsin precursor,Avge of clones,2.5
same,expression change (fold): Aquaporin 3,Avge of clones,5.2
same,expression change (fold): Brain-derived neurotrophic factor,Avge of clones,6.3
same,"expression change (fold): CCAAT/enhancer binding protein (C/EBP), delta",Avge of clones,4.6
same,expression change (fold): Cathepsin L,Avge of clones,3.7
same,expression change (fold): Cytokine receptor-like factor 1,Avge of clones,4.8
same,expression change (fold): Death-associated protein kinase 1,Avge of clones,5.3
same,expression change (fold): Ephrin A1 precursor,Avge of clones,4.0
same,expression change (fold): Ets variant gene 6,Avge of clones,4.2
same,expression change (fold): Fibronectin,Avge of clones,4.5
same,"expression change (fold): Fibronectin 1, isoform 1 preproprotein",Avge of clones,5.2
same,"expression change (fold): Glycine dehydrogenase (decarboxylating, glycine decdarboxylase, glycine cleavage system protein P)",Avge of clones,1.7
same,expression change (fold): H. sapiens mRNA; cDNA DZFZp586N012,Avge of clones,2.3
same,expression change (fold): I factor (complement),Avge of clones,2.9
same,expression change (fold): Insulin-like growth factor binding protein 3,Avge of clones,3.9
same,expression change (fold): Intercellular adhesion molecule 1 precursor,Avge of clones,2.4
same,expression change (fold): Interferon induced transmembrane protein 1 (9-27),Avge of clones,2.8
same,expression change (fold): Interleukin 8,Avge of clones,4.9
same,expression change (fold): Jun B proto-oncogene,Avge of clones,3.0
same,expression change (fold): KIAA0161 gene product,Avge of clones,2.4
same,expression change (fold): KIAA0303 protein,Avge of clones,2.9
same,expression change (fold): KIAA0500 protein,Avge of clones,4.2
same,"expression change (fold): Killer cell lectin-like receptor subfamily C, member 2",Avge of clones,6.1
same,"expression change (fold): Killer cell lectin-like receptor subfamily C, member 3 isoform NKG2-E",Avge of clones,10.3
same,expression change (fold): Kynureninase (L-kynurenine hydrolase),Avge of clones,3.6
same,expression change (fold): Major vault protein,Avge of clones,2.8
same,expression change (fold): Nicotinamide N-methyltransferase,Avge of clones,2.6
same,"expression change (fold): Niemann-Pick disease, type C1",Avge of clones,2.2
same,expression change (fold): Oncostatin M receptor,Avge of clones,3.3
same,expression change (fold): Osteoprotegrin,Avge of clones,8.6
same,expression change (fold): Prostatic acid phosphatase precursor,Avge of clones,10.5
same,expression change (fold): Ras-induced senescence 1,Avge of clones,2.4
same,"expression change (fold): Regenerating islet-derived 1 alpha (pancreatic stone protein, pancreatic thread protein)",Avge of clones,4.0
same,expression change (fold): Regulator of G protein signalling 16,Avge of clones,5.3
same,expression change (fold): STAT induced STAT inhibitor 3,Avge of clones,9.9
same,"expression change (fold): Secreted phosphoprotein 1 (osteopontin, bone sialoprotein 1, early T-lymphocyte activation 1)",Avge of clones,25.5
same,"expression change (fold): Serine (or cysteine) protease inhibitor, clade B (ovalbumin), member 3",Avge of clones,100.2
same,expression change (fold): Small inducible cytokine A2 (monocyte chemotactic protein 1),Avge of clones,2.4
same,"expression change (fold): Solute carrier family 2 (facilitated glucose transporter), member 3",Avge of clones,2.6
same,expression change (fold): Stanniocalcin 1,Avge of clones,6.7
same,expression change (fold): Tyrosine phosphatase/TIGR = HG620-HT620,Avge of clones,2.2
same,expression change (fold): v-fos FBJ murine osteosarcoma viral gene homologue,Avge of clones,3.9
same,expression change (fold): v-jun avian sarcoma virus 17 oncogene homologue,Avge of clones,4.9
same,expression change (fold): v-maf musculoaponeurotic fibrosarcoma oncogene homologue (avian),Avge of clones,1.6
same,expression change (fold): Aquaporin 3,"Avge of clones, 2nd listing",4.4
same,"expression change (fold): Fibronectin 1, isoform 1 preproprotein","Avge of clones, 2nd listing",5.0
same,expression change (fold): Insulin-like growth factor binding protein 3,"Avge of clones, 2nd listing",3.1
same,expression change (fold): Interleukin 8,"Avge of clones, 2nd listing",2.6
same,expression change (fold): Kynureninase (L-kynurenine hydrolase),"Avge of clones, 2nd listing",3.3
same,expression change (fold): Oncostatin M receptor,"Avge of clones, 2nd listing",3.3
same,expression change (fold): Prostatic acid phosphatase precursor,"Avge of clones, 2nd listing",2.8
same,"expression change (fold): Secreted phosphoprotein 1 (osteopontin, bone sialoprotein 1, early T-lymphocyte activation 1)","Avge of clones, 2nd listing",18.4
same,expression change (fold): v-jun avian sarcoma virus 17 oncogene homologue,"Avge of clones, 2nd listing",4.3
same,expression change (fold): Kynureninase (L-kynurenine hydrolase),"Avge of clones, 3rd listing",2.9
same,expression change (fold): Absent in melanoma 2,Clone1,2.2
same,expression change (fold): Alpha-1-antichymotrypsin precursor,Clone1,2.7
same,expression change (fold): Aquaporin 3,Clone1,5.2
same,expression change (fold): Brain-derived neurotrophic factor,Clone1,8.9
same,"expression change (fold): CCAAT/enhancer binding protein (C/EBP), delta",Clone1,5.6
same,expression change (fold): Cathepsin L,Clone1,3.6
same,expression change (fold): Cytokine receptor-like factor 1,Clone1,5.2
same,expression change (fold): Death-associated protein kinase 1,Clone1,5.7
same,expression change (fold): Ephrin A1 precursor,Clone1,2.8
same,expression change (fold): Ets variant gene 6,Clone1,3.9
same,expression change (fold): Fibronectin,Clone1,4.3
same,"expression change (fold): Fibronectin 1, isoform 1 preproprotein",Clone1,7.7
same,"expression change (fold): Glycine dehydrogenase (decarboxylating, glycine decdarboxylase, glycine cleavage system protein P)",Clone1,1.8
same,expression change (fold): H. sapiens mRNA; cDNA DZFZp586N012,Clone1,2.6
same,expression change (fold): I factor (complement),Clone1,3.8
same,expression change (fold): Insulin-like growth factor binding protein 3,Clone1,2.5
same,expression change (fold): Intercellular adhesion molecule 1 precursor,Clone1,2.8
same,expression change (fold): Interferon induced transmembrane protein 1 (9-27),Clone1,3.1
same,expression change (fold): Interleukin 8,Clone1,2.3
same,expression change (fold): Jun B proto-oncogene,Clone1,3.3
same,expression change (fold): KIAA0161 gene product,Clone1,2.5
same,expression change (fold): KIAA0303 protein,Clone1,4.2
same,expression change (fold): KIAA0500 protein,Clone1,1.6
same,"expression change (fold): Killer cell lectin-like receptor subfamily C, member 2",Clone1,9.5
same,"expression change (fold): Killer cell lectin-like receptor subfamily C, member 3 isoform NKG2-E",Clone1,18.4
same,expression change (fold): Kynureninase (L-kynurenine hydrolase),Clone1,4.0
same,expression change (fold): Major vault protein,Clone1,3.6
same,expression change (fold): Nicotinamide N-methyltransferase,Clone1,2.7
same,"expression change (fold): Niemann-Pick disease, type C1",Clone1,2.3
same,expression change (fold): Oncostatin M receptor,Clone1,4.3
same,expression change (fold): Osteoprotegrin,Clone1,12.9
same,expression change (fold): Prostatic acid phosphatase precursor,Clone1,9.3
same,expression change (fold): Ras-induced senescence 1,Clone1,2.4
same,"expression change (fold): Regenerating islet-derived 1 alpha (pancreatic stone protein, pancreatic thread protein)",Clone1,4.7
same,expression change (fold): Regulator of G protein signalling 16,Clone1,6.9
same,expression change (fold): STAT induced STAT inhibitor 3,Clone1,9.2
same,"expression change (fold): Secreted phosphoprotein 1 (osteopontin, bone sialoprotein 1, early T-lymphocyte activation 1)",Clone1,10.8
same,"expression change (fold): Serine (or cysteine) protease inhibitor, clade B (ovalbumin), member 3",Clone1,103.0
same,expression change (fold): Small inducible cytokine A2 (monocyte chemotactic protein 1),Clone1,2.8
same,"expression change (fold): Solute carrier family 2 (facilitated glucose transporter), member 3",Clone1,2.9
same,expression change (fold): Stanniocalcin 1,Clone1,5.2
same,expression change (fold): Tyrosine phosphatase/TIGR = HG620-HT620,Clone1,2.3
same,expression change (fold): v-fos FBJ murine osteosarcoma viral gene homologue,Clone1,3.6
same,expression change (fold): v-jun avian sarcoma virus 17 oncogene homologue,Clone1,3.6
same,expression change (fold): v-maf musculoaponeurotic fibrosarcoma oncogene homologue (avian),Clone1,1.2
same,expression change (fold): Aquaporin 3,"Clone1, 2nd listing",5.7
same,"expression change (fold): Fibronectin 1, isoform 1 preproprotein","Clone1, 2nd listing",6.8
same,expression change (fold): Insulin-like growth factor binding protein 3,"Clone1, 2nd listing",2.3
same,expression change (fold): Interleukin 8,"Clone1, 2nd listing",2.9
same,expression change (fold): Kynureninase (L-kynurenine hydrolase),"Clone1, 2nd listing",4.3
same,expression change (fold): Oncostatin M receptor,"Clone1, 2nd listing",4.2
same,expression change (fold): Prostatic acid phosphatase precursor,"Clone1, 2nd listing",3.3
same,"expression change (fold): Secreted phosphoprotein 1 (osteopontin, bone sialoprotein 1, early T-lymphocyte activation 1)","Clone1, 2nd listing",16.9
same,expression change (fold): v-jun avian sarcoma virus 17 oncogene homologue,"Clone1, 2nd listing",5.6
same,expression change (fold): Kynureninase (L-kynurenine hydrolase),"Clone1, 3rd listing",3.9
same,expression change (fold): Absent in melanoma 2,Clone2,2.0
same,expression change (fold): Alpha-1-antichymotrypsin precursor,Clone2,2.3
same,expression change (fold): Aquaporin 3,Clone2,5.1
same,expression change (fold): Brain-derived neurotrophic factor,Clone2,3.6
same,"expression change (fold): CCAAT/enhancer binding protein (C/EBP), delta",Clone2,3.7
same,expression change (fold): Cathepsin L,Clone2,3.8
same,expression change (fold): Cytokine receptor-like factor 1,Clone2,4.3
same,expression change (fold): Death-associated protein kinase 1,Clone2,4.8
same,expression change (fold): Ephrin A1 precursor,Clone2,5.2
same,expression change (fold): Ets variant gene 6,Clone2,4.5
same,expression change (fold): Fibronectin,Clone2,4.6
same,"expression change (fold): Fibronectin 1, isoform 1 preproprotein",Clone2,2.6
same,"expression change (fold): Glycine dehydrogenase (decarboxylating, glycine decdarboxylase, glycine cleavage system protein P)",Clone2,1.6
same,expression change (fold): H. sapiens mRNA; cDNA DZFZp586N012,Clone2,2.0
same,expression change (fold): I factor (complement),Clone2,2.0
same,expression change (fold): Insulin-like growth factor binding protein 3,Clone2,5.4
same,expression change (fold): Intercellular adhesion molecule 1 precursor,Clone2,2.1
same,expression change (fold): Interferon induced transmembrane protein 1 (9-27),Clone2,2.5
same,expression change (fold): Interleukin 8,Clone2,7.4
same,expression change (fold): Jun B proto-oncogene,Clone2,2.6
same,expression change (fold): KIAA0161 gene product,Clone2,2.4
same,expression change (fold): KIAA0303 protein,Clone2,1.7
same,expression change (fold): KIAA0500 protein,Clone2,6.7
same,"expression change (fold): Killer cell lectin-like receptor subfamily C, member 2",Clone2,2.7
same,"expression change (fold): Killer cell lectin-like receptor subfamily C, member 3 isoform NKG2-E",Clone2,2.2
same,expression change (fold): Kynureninase (L-kynurenine hydrolase),Clone2,3.2
same,expression change (fold): Major vault protein,Clone2,2.0
same,expression change (fold): Nicotinamide N-methyltransferase,Clone2,2.5
same,"expression change (fold): Niemann-Pick disease, type C1",Clone2,2.2
same,expression change (fold): Oncostatin M receptor,Clone2,2.4
same,expression change (fold): Osteoprotegrin,Clone2,4.4
same,expression change (fold): Prostatic acid phosphatase precursor,Clone2,11.7
same,expression change (fold): Ras-induced senescence 1,Clone2,2.5
same,"expression change (fold): Regenerating islet-derived 1 alpha (pancreatic stone protein, pancreatic thread protein)",Clone2,3.4
same,expression change (fold): Regulator of G protein signalling 16,Clone2,3.7
same,expression change (fold): STAT induced STAT inhibitor 3,Clone2,10.5
same,"expression change (fold): Secreted phosphoprotein 1 (osteopontin, bone sialoprotein 1, early T-lymphocyte activation 1)",Clone2,40.1
same,"expression change (fold): Serine (or cysteine) protease inhibitor, clade B (ovalbumin), member 3",Clone2,97.5
same,expression change (fold): Small inducible cytokine A2 (monocyte chemotactic protein 1),Clone2,2.0
same,"expression change (fold): Solute carrier family 2 (facilitated glucose transporter), member 3",Clone2,2.3
same,expression change (fold): Stanniocalcin 1,Clone2,8.3
same,expression change (fold): Tyrosine phosphatase/TIGR = HG620-HT620,Clone2,2.1
same,expression change (fold): v-fos FBJ murine osteosarcoma viral gene homologue,Clone2,4.1
same,expression change (fold): v-jun avian sarcoma virus 17 oncogene homologue,Clone2,6.3
same,expression change (fold): v-maf musculoaponeurotic fibrosarcoma oncogene homologue (avian),Clone2,2.0
same,expression change (fold): Aquaporin 3,"Clone2, 2nd listing",3.2
same,"expression change (fold): Fibronectin 1, isoform 1 preproprotein","Clone2, 2nd listing",3.3
same,expression change (fold): Insulin-like growth factor binding protein 3,"Clone2, 2nd listing",3.9
same,expression change (fold): Interleukin 8,"Clone2, 2nd listing",2.2
same,expression change (fold): Kynureninase (L-kynurenine hydrolase),"Clone2, 2nd listing",2.4
same,expression change (fold): Oncostatin M receptor,"Clone2, 2nd listing",2.5
same,expression change (fold): Prostatic acid phosphatase precursor,"Clone2, 2nd listing",2.4
same,"expression change (fold): Secreted phosphoprotein 1 (osteopontin, bone sialoprotein 1, early T-lymphocyte activation 1)","Clone2, 2nd listing",20.0
same,expression change (fold): v-jun avian sarcoma virus 17 oncogene homologue,"Clone2, 2nd listing",3.1
same,expression change (fold): Kynureninase (L-kynurenine hydrolase),"Clone2, 3rd listing",2.0
same,number of genes significantly decreased,after 24 hrs of treatment,23 genes
same,number of genes significantly increased,after 24 hrs of treatment,154 genes
same,number of genes upregulated more than two-fold,after 24 hrs of treatment,39 genes
same,SOCS3 expression,as early as 1 hr after treatment,rapidly increased

# Source: US20080064027A1, “TEL/Etv6-mediated inhibition of cell proliferation” (priority 2002, published 2008)
